The source made the active and inactive calls. The rule behind the calls is not given here.
What was measured:
[1] = target: T1, ATP-dependent translocase ABCB1 (Homo sapiens, UniProt P08183); assay: (§1) Inhibition of P-gp-mediated doxorubicin efflux in human Lucena 1 cells assessed as ratio of doxorubicin fluorescence intensity in presence of compound to doxorubicin fluorescence intensity in absence of compound at 25 uM preincubated for 1 hr followed by doxorubicin addition measured after 1 hr by flow cytometry; assay type: cell-based
T1 sequence (P08183 whole entry): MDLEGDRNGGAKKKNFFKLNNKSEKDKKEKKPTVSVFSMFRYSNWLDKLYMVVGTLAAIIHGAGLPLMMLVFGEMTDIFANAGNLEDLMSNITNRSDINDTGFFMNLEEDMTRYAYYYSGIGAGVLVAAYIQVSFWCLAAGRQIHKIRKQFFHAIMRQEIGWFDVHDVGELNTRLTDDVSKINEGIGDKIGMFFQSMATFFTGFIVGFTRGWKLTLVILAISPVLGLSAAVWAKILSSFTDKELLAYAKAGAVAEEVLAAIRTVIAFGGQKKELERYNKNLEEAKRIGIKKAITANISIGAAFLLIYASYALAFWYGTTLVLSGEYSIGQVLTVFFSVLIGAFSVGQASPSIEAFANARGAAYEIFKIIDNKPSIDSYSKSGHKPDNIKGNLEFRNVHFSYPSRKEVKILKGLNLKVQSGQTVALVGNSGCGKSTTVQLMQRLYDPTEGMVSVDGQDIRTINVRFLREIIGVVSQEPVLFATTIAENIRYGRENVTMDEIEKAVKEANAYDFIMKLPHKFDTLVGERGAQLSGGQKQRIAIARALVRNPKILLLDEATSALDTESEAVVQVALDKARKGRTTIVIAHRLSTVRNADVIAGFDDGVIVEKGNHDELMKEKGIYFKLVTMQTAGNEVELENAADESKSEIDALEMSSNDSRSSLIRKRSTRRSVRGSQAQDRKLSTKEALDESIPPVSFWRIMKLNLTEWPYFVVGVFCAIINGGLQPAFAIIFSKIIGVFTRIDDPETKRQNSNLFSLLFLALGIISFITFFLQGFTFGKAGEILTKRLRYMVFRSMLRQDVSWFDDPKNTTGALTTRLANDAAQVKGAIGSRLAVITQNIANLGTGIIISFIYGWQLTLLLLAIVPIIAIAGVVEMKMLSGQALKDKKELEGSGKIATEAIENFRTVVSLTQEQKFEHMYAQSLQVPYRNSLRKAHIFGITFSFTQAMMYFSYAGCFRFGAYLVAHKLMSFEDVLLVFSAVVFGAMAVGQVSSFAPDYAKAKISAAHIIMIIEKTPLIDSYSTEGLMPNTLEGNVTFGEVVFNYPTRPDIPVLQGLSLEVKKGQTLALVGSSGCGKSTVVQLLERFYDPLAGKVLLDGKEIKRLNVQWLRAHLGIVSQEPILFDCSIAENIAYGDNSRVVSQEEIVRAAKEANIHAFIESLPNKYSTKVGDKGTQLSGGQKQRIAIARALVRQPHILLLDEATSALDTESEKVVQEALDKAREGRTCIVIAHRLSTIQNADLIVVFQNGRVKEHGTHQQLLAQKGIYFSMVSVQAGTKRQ

[2] = target: T1, ATP-dependent translocase ABCB1; assay: Inhibition of P-gp-mediated Rho-123 efflux in human Lucena 1 cells at […] preincubated for 1 hr followed by Rho-123 addition measured after 1 hr by flow cytometry; assay type: cell-based
[3] = target: T1, ATP-dependent translocase ABCB1; assay: as §1, with “6.25” for “25”; assay type: cell-based
[4] = target: T1, ATP-dependent translocase ABCB1; assay: as §1, with “1.56” for “25”; assay type: cell-based
[5] = target: T1, ATP-dependent translocase ABCB1; assay: as §1, with “0.78” for “25”; assay type: cell-based
[6] = target: T1, ATP-dependent translocase ABCB1; assay: Inhibition of P-gp-mediated doxorubicin efflux in human Lucena 1 cells preincubated for 1 hr followed by doxorubicin addition measured after 1 hr by flow cytometry; assay type: cell-based
K562 [7] = assay: Inhibition of doxorubicin efflux in human K562 cells at 25 uM preincubated for 1 hr followed by doxorubicin addition measured after 1 hr by flow cytometry; assay type: functional, cell-based
[8] = target: T1, ATP-dependent translocase ABCB1; assay: Inhibition of P-gp-mediated Rho-123 efflux in human Lucena 1 cells at 50 uM preincubated for 1 hr followed by Rho-123 addition measured after 1 hr by flow cytometry; assay type: cell-based
K562 [9] = assay type: functional, cell-based; conditions: Homo sapiens, 3.12 uM
PBMC [10] = assay: Cytotoxicity against human PBMC at 25 uM after 48 hrs by MTT assay relative to control; assay type: cell-based
PBMC [11] = assay: Cytotoxicity against human PBMC at 6.25 uM after 48 hrs by MTT assay; assay type: cell-based
[12] = target: T1, ATP-dependent translocase ABCB1; assay: as §1, with “0.39” for “25”; assay type: cell-based
K562 [13] = assay: Potentiation of doxorubicin-induced cytotoxicity in human K562 cells assessed as decrease in doxorubicin IC50 at 1.56 uM after 48 hrs by MTT assay; assay type: functional, cell-based
P-gp (ABCB1) = P-gp (ABCB1) (Homo sapiens, UniProt P08183); assay: Stimulation of P-gp (unknown origin) ATPase activity at 10 uM relative to control; conditions: read-out: Activity
P-gp (ABCB1), sequence (P08183 whole entry): as above

With `CC/C(=C(\c1ccccc1)c1ccc(OCCN(C)C)cc1)c1ccccc1` [TAMOXIFEN] the Ratio [1] was 1.13 and the INH [2] was “Active”.

`Cc1c(-c2ccc(O)c(O)c2)[nH]c2ccc(O)cc12` gave a Ratio [1] of 0.72.

`CC/C(=C(/CC)c1ccc(OCCCO)cc1)c1ccc(OCCCO)cc1` gave a Ratio [1] of 1.23, a Ratio [3] of 1.09 and a Ratio [4] of 1.05. For the same compound, the Ratio [5] was 0.98, the “inhibition (INH)” value [6] was “Dose-dependent effect” and the inhibition (K562 [7]) was “inactive”. For the same compound, the “inhibition (INH)” value [8] was “Active”, the Activity (K562 [9]) was “inactive” and the Activity (PBMC [10]) was 34.67%. The Activity (PBMC [11]) was “Non-Toxic”.

`CC/C(=C(/CC)c1ccc(OCCCCO)cc1)c1ccc(OCCCCO)cc1` showed a Ratio [1] of 1.32, a Ratio [3] of 1.08 and a Ratio [4] of 1.1. The Ratio [5] was 0.99, the Ratio [12] was 1 and the “inhibition (INH)” value [6] was “Dose-dependent effect”. For the same compound, the inhibition (K562 [7]) was “inactive”, the INH [2] was “Active” and the Activity (K562 [13]) was “inactive”. For the same compound, the Activity (PBMC [10]) was 41% and the Activity (PBMC [11]) was “Non-Toxic”.

`CC/C(=C(/CC)c1ccc(OCCOC(C)=O)cc1)c1ccc(OCCOC(C)=O)cc1` showed a Ratio [1] of 1.21, a Ratio [3] of 1.12 and a Ratio [4] of 1.03. The “inhibition (INH)” value [6] was “Dose-dependent effect” and the inhibition (K562 [7]) was “inactive”.

For `CC/C(=C(/CC)c1ccc(OCCO)cc1)c1ccc(OCCO)cc1`, the Ratio [1] was 1.16, the Ratio [3] was 1.08 and the “inhibition (INH)” value [6] was “Dose-dependent effect”. The inhibition (K562 [7]) was “inactive”.

For `COc1ccc2[nH]c(-c3ccc(OC)c(OC)c3)c(C)c2c1`, the Ratio [1] was 0.9.

`CC/C(=C(/CC)c1ccc(OCCOS(=O)(=O)[O-])cc1)c1ccc(OCCOS(=O)(=O)[O-])cc1.[Na+].[Na+]` showed a Ratio [1] of 1.04.

`CC/C(=C(/CC)c1ccc(OCCCCS(=O)(=O)[O-])cc1)c1ccc(OCCCCS(=O)(=O)[O-])cc1.[Na+].[Na+]` gave a Ratio [1] of 0.95.

`CC/C(=C(/CC)c1ccc(OCCCOC(C)=O)cc1)c1ccc(OCCCOC(C)=O)cc1` was tested, and the Ratio [1] was 1.21, the Ratio [3] was 1.06 and the Ratio [4] was 1.02. The “inhibition (INH)” value [6] was “Dose-dependent effect” and the inhibition (K562 [7]) was “inactive”.

For `COc1cc([C@@H]2CC(O)=Nc3c2cnn3Cc2cccs2)ccc1O`, the Ratio [1] was 0.96.

For `CC/C(=C(/CC)c1ccc(S(=O)(=O)[O-])cc1)c1ccc(S(=O)(=O)[O-])cc1.[Na+].[Na+]`, the Ratio [1] was 0.99.

`CC/C(=C(/CC)c1ccc(OCCCCOC(C)=O)cc1)c1ccc(OCCCCOC(C)=O)cc1` showed a Ratio [1] of 1.18, a Ratio [3] of 1.09 and a Ratio [4] of 1.01. The “inhibition (INH)” value [6] was “Dose-dependent effect” and the inhibition (K562 [7]) was “inactive”.

With `COc1ccc(-n2nc(C)c3c2NC(=O)C[C@@H]3c2ccc(O)c(OC)c2)cc1` the Ratio [1] was 1.11.

In the case of `Cc1c(-c2ccc(O)c(O)c2)[nH]c2ccc(OCCO)cc12`, the Ratio [1] is reported as 1.01.

`Cc1c(-c2ccc(O)c(O)c2)n(C)c2ccc(O)cc12` was tested, and the Ratio [1] was 0.75.

Work on `Cc1c(-c2ccc(O)cc2)[nH]c2ccc(O)cc12` yielded a Ratio [1] of 0.8.

In the case of `CC/C(=C(/CC)c1ccc(OC)cc1)c1ccc(OC)cc1`, the Ratio [1] is reported as 1.19, the Ratio [3] is reported as 1.09 and the “inhibition (INH)” value [6] is reported as “Dose-dependent effect”. For the same compound, the inhibition (K562 [7]) was “inactive”.

Work on `CC/C(=C(/CC)c1ccc(O)cc1)c1ccc(O)cc1` [DIETHYLSTILBESTROL] yielded a Ratio [1] of 1.06, a Ratio [3] of 1.04 and an activity at 10 µM (P-gp (ABCB1)) of 45%. The inhibition (K562 [7]) was “inactive”.

For `CC/C(=C(/CC)c1ccc(OCCCS(=O)(=O)[O-])cc1)c1ccc(OCCCS(=O)(=O)[O-])cc1.[Na+].[Na+]`, the Ratio [1] was 1.03.

— ChEMBL document CHEMBL4325923, “Analogues of the Lignan Pinoresinol as Novel Lead Compounds for P-glycoprotein (P-gp) Inhibitors” (ACS Med Chem Lett, 2018)
